What is called Kd is the concentration at which binding is half-saturated.

Results on five compounds are retold here after doi:10.64898/2025.12.17.694979, “Tunable multivalent Fe(II)-based glycoassemblies as mimetics for native high-mannose glycans” (bioRxiv, 2025).

One test has as its target mGRFT (Griffithsia sp., UniProt P84801, INS16GS). The experiment in a line: Isothermal titration calorimetry (ITC) binding to mGRFT. The note with it: two-site model.
In test [1] the target is monomeric Griffithsin (mGRFT) (Griffithsia sp., UniProt P84801, INS16GS). The experiment in a line: Biolayer interferometry (BLI) binding to mGRFT. Particulars: for Kd: mGRFT as the analyte, 25 °C. On the procedure: (§1) All BLI experiments were performed at 25 °C on an Octet R2 instrument using SA or NiNTA biosensors. Ligand was loaded onto the biosensors followed by a baseline then association and dissociation phase. Biosensors were regenerated and this process was repeated for varying concentrations of analyte. Data was processed in Octet analysis studio 13.0. The samples were double referenced, first to a reference sensor then to a well containing no analyte. The trace responses were aligned to the average of the final 5s of the baseline and inter-step corrected to the dissociation step. A Savitzky-Golay filter was applied to reduce high frequency noise. The association and dissociation phases were fit globally to a 1:1 single exponential binding model. All conditions were run in triplicate.
(In general: Biolayer interferometry detects binding as a change in optical thickness at a sensor tip.)

Test [2] has as its system mGRFT binding to biotinylated Man-9. The test can be described thus: BLI competition assay against immobilized Man-9. Details: species or system Griffithsia. The note with it: Man-9 immobilized. On the procedure:
To further probe this ultra-high-affinity interaction, we performed a BLI competition assay to determine whether the [2DEG]^2+ complex could outcompete mGRFT’s natural ligand, Man-9. Biotinylated Man-9 was immobilized on the BLI biosensor tip, which was then dipped into solutions containing mGRFT that was pre-incubated with varying concentrations of [2DEG]^2+. […] More broadly, this finding highlights the power of rational synthetic design to generate glycomimetics capable of outperforming their biological counterparts.
as §1

In the next test the target is GRFT. Details: method as in PMID 17340634. Particulars: free mannose; cited from earlier work.

Chain of monomeric Griffithsin (mGRFT) (P84801 whole entry, stated change not applied): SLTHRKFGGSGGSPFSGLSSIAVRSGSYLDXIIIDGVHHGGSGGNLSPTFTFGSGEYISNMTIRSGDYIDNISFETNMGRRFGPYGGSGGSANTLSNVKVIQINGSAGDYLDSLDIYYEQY
Chain of mGRFT (P84801 whole entry, stated change not applied): as above

For `OC[C@H]1O[C@H](OCCOCCOc2ccc(/C=N/CCN(CC/N=C/c3ccc(OCCOCCO[C@H]4O[C@H](CO)[C@@H](O)[C@H](O)[C@@H]4O)cn3)CC/N=C/c3ccc(OCCOCCO[C@H]4O[C@H](CO)[C@@H](O)[C@H](O)[C@@H]4O)cn3)nc2)[C@@H](O)[C@@H](O)[C@@H]1O.[Fe+2]` [[1DEG]^2+, [Fe(DEGman)3][SO4]], the “stoichiometry of each interaction” value at mGRFT was “one”.

Regarding `OC[C@H]1O[C@H](O[C@@H]2[C@@H](OCCOCCOc3ccc(/C=N/CCN(CC/N=C/c4ccc(OCCOCCO[C@H]5O[C@H](CO)[C@@H](O)[C@H](O)[C@@H]5O[C@H]5O[C@H](CO)[C@@H](O)[C@H](O)[C@@H]5O)cn4)CC/N=C/c4ccc(OCCOCCO[C@H]5O[C@H](CO)[C@@H](O)[C@H](O)[C@@H]5O[C@H]5O[C@H](CO)[C@@H](O)[C@H](O)[C@@H]5O)cn4)nc3)O[C@H](CO)[C@@H](O)[C@@H]2O)[C@@H](O)[C@@H](O)[C@@H]1O.[Fe+2]` [[2DEG]^2+], the dissociation rate kd result in test [1] (1:1 binding model) is reported as “no measurable dissociation”. Also, the “reduction of BLI response in the association phase” value is listed as “approximately 50%” in test [2] (0.5 molar equivalents of complex pre-incubated with mGRFT) and “nearly eliminating the response entirely” in test [2] (two molar equivalents of complex pre-incubated with mGRFT).

Regarding `OC[C@H]1OC(O)[C@@H](O)[C@@H](O)[C@@H]1O` (stereo partly shown) [free mannose, mannose], at GRFT, the Kd is 102 µM.

Take Man-5: the Kd in test [1] (biotinylated Man-5 as the ligand, kinetic fitting and steady state analysis) stood at 40 ± 10 µM.

Man-9 yielded a dissociation constant Kd in test [1] (biotinylated Man-9 as the ligand) of 0.067 ± 0.001 µM.
